Format in all cases: cell-based
In experiment [1] the test system is ERK phosphorylation in H358 cells. Briefly: H358 cell ERK phosphorylation inhibition assay (HTRF pERK/total ERK). Conditions: 3 h incubation, ratio of pERK/total ERK, read-out: IC50 (nM), inhibitory effects on ERK phosphorylation in H358 cells. The procedure:
The inhibitory effects of the compounds of the present disclosure on ERK phosphorylation in H358 cells were measured. Below is a brief description of the experimental method: H358 cells (ATCC, CRL-5807) were cultured in RPMI1640 medium (Hyclone, SH30809.01) containing 10% fetal bovine serum (Corning, 35-076-CV) (i.e., complete medium). On the first day of the experiment, H358 cells were seeded into a 96-well plate at a density of 25,000 cells/well using complete medium, with 190 μL of cell suspension per well, and the plate was incubated overnight in a 37° C., 5% CO2 cell incubator. On the second day, the test compounds, prepared in complete medium and serially diluted, were added at 10 μL/well. The final concentrations of the compounds were 9 concentration points obtained by a 6-fold serial dilution from 10 μM. A blank control containing 0.5% DMSO was set up. The plate was incubated for 3 h in a 37° C., 5% CO2 cell incubator. After 3 h, the 96-well cell culture plate was removed from the incubator, and the culture medium was pipetted off. PBS (Shanghai BasalMedia Technologies Co., Ltd., B320) was added at 200 μL/well for a single wash. PBS was pipetted off, and lysis buffer (Cisbio, 64KL1FDF) containing a blocking agent (Cisbio, 64KB1AAC) was added at 50 μL/well. The plate was incubated on a shaker for 30 min at room temperature to lyse the cells. After lysis, the lysates were well mixed by pipetting, and 16 μL of lysate was transferred from each well to two HTRF 96-well assay plates (Cisbio, 66PL96100). Subsequently, 4 μL of a premixed phospho-ERK1/2 antibody solution (Cisbio, 64AERPEG) or 4 μL of a premixed total-ERK1/2 antibody solution (Cisbio, 64NRKPEG) was added to each of the plates. The plates were sealed with a plate sealer film, centrifuged for 1 min in a microplate centrifuge, and incubated overnight at room temperature in the dark. On the third day, fluorescence values at an excitation wavelength of 337 nm and emission wavelengths of 665 nm and 620 nm were measured using a PHERAstar multifunctional microplate reader (BMG Labtech, PHERAstar FS). The IC50 values for the inhibitory activity of the compounds were calculated using Graphpad Prism software, based on the compound concentration and the ratio of pERK/total ERK.

For a further experiment, the system named is H358 cells. In words: H358 proliferation assay (CellTiter-Glo). Particulars: 120 h incubation, read-out: IC50 (nM), inhibitory activity against H358 cell proliferation. The procedure:
The inhibitory activity of the compounds of the present disclosure against H358 cell proliferation was measured. Below is a brief description of the experimental method: H358 cells (ATCC, CRL-5807) were cultured in RPMI1640 medium (Hyclone, SH30809.01) containing 10% fetal bovine serum (Corning, 35-076-CV) (i.e., complete medium). On the first day of the experiment, H358 cells were seeded into a 96-well plate at a density of 1200 cells/well using complete medium, with 100 μL of cell suspension per well, and the plate was incubated overnight in a 37° C., 5% CO2 cell incubator. On the second day, the test compounds, prepared in complete medium and serially diluted, were added at 10 μL/well. The final concentrations of the compounds were 9 concentration points obtained by a 5-fold serial dilution from 10 μM. A blank control containing 0.5% DMSO was set up. The plate was incubated for 120 h in a 37° C., 5% CO2 cell incubator. On the seventh day, the 96-well cell plate was removed from the incubator, and CellTiter-Glo® Luminescent Cell Viability Assay (Promega, G7573) was added at 50 μL/well. After 10 min of room temperature incubation, luminescence signals were measured using a multifunctional microplate reader (PerkinElmer, EnVision® 2105). The IC50 values for the inhibitory activity of the compounds were calculated using Graphpad Prism software.

The next experiment deals with MIA PaCa-2 cells. Briefly: MIA PaCa-2 cell proliferation assay (CellTiter-Glo). Particulars: 72 h incubation, read-out: IC50 (nM), inhibitory activity against MIA PaCa-2 cell proliferation. The procedure: The inhibitory activity of the compounds of the present disclosure against MIA PaCa-2 cell proliferation was measured. Below is a brief description of the experimental method:
MIA PaCa-2 cells (ATCC, CRL-1420) were cultured in DMEM/HIGH GLUCOSE medium (GE, SH30243.01) containing 10% fetal bovine serum (Corning, 35-076-CV) and 2.5% horse serum (Beyotime Biological Tech., C0262) (i.e., complete medium). On the first day of the experiment, MIA PaCa-2 cells were seeded into a 96-well plate at a density of 500 cells/well using complete medium, with 90 µL of cell suspension per well, and the plate was incubated overnight in a 37° C., 5% CO2 cell incubator. On the second day, the test compounds, prepared in complete medium and serially diluted, were added at 10 μL/well. The final concentrations of the compounds were 9 concentration points obtained by a 5-fold serial dilution from 10 μM. A blank control containing 0.5% DMSO was set up. The plate was incubated for 72 h in a 37° C., 5% CO2 cell incubator. On the fifth day, the 96-well cell plate was removed from the incubator, and CellTiter-Glo® Luminescent Cell Viability Assay (Promega, G7573) was added at 50 μL/well. After 10 min of room temperature incubation, luminescence signals were measured using a multifunctional microplate reader (PerkinElmer, EnVision2015). The IC50 values for the inhibitory activity of the compounds were calculated using Graphpad Prism software.
A general note: ATP-based viability assays read luminescence as a measure of living cells.

Structures are written as SMILES. Read-outs that look alike come from different tables or passages of the source.

`C=CC(=O)N1CCN2C(=O)c3cc(F)c(-c4ccc(F)c5sc(N)c(C#N)c45)c4c(C)nn(c34)CC[C@H]2C1` (atropisomer, axis not shown) [Example 9-P2, (S)-4-((S)-10-Acryloyl-2-fluoro-4-methyl-14-oxo-8,8a,9,10,11,12-hexahydro-7H,14H-pyrazino[1′,2′:5,6][1,5]diazocino[3,2,1-hi]indazol-3-yl)-2-amino-7-fluorobenzo[b]thiophene-3-carbonitrile]: the IC50 in experiment [1] was 0.06 nM; with H358 cells (Homo sapiens, NCI-H358, 120 h) it was 0.52 nM; in the experiment on MIA PaCa-2 cells (Homo sapiens, MIA PaCa-2, 72 h) it was 0.37 nM.

Consider `C=CC(=O)N1CCN2C(=O)c3c(F)c(F)c(-c4ccc(F)c5sc(N)c(C#N)c45)c4cnn(c34)CC[C@H]2C1` (atropisomer, axis not shown) [Example 11-P1, (R)-4-((S)-10-Acryloyl-1,2-difluoro-14-oxo-8,8a,9,10,11,12-hexahydro-7H,14H-pyrazino[1′,2′:5.6][1,5]diazocino[3,2,1-hi]indazol-3-yl)-2-amino-7-fluorobenzo[b]thiophene-3-carbonitrile], for which the IC50 in experiment [1] turned out to be 7.67 nM; in the experiment with H358 cells, 2.25 nM; with MIA PaCa-2 cells, 2.71 nM.

On to `C=CC(=O)N1CCN2C(=O)c3c(F)c(F)c(-c4ccc(F)c5sc(N)c(C#N)c45)c4cnn(c34)CC[C@H]2C1` (atropisomer, axis not shown) [Example 11-P2, (S)-4-((S)-10-Acryloyl-1,2-difluoro-14-oxo-8,8a,9,10,11,12-hexahydro-7H,14H-pyrazino[1′,2′:5.6][1,5]diazocino[3,2,1-hi]indazol-3-yl)-2-amino-7-fluorobenzo[b]thiophene-3-carbonitrile], for which the IC50 was found to be 0.09 nM in experiment [1], 0.32 nM in the experiment on H358 cells and 0.46 nM in the experiment on MIA PaCa-2 cells.

Regarding `C=CC(=O)N1CCN2C(=O)c3cc(F)c(-c4ccc(F)c5sc(N)c(C#N)c45)c4c(F)cn(c34)CC[C@H]2C1` (atropisomer, axis not shown) [Example 13-P2, (S)-4-((S)-10-Acryloyl-2,4-difluoro-14-oxo-8,8a,9,10,11,12-hexahydro-7H,14H-pyrazino[1′,2′:5.6][1,5]diazocino[3,2,1-hi]indol-3-yl)-2-amino-7-fluorobenzo[b]thiophene-3-carbonitrile], the IC50 worked out at 0.76 nM in experiment [1] (Homo sapiens, NCI-H358, 3 h); 11.4 nM in the experiment with H358 cells (Homo sapiens, NCI-H358, 120 h); 20.5 nM in the experiment with MIA PaCa-2 cells (Homo sapiens, MIA PaCa-2, 72 h).

`C=C(F)C(=O)N1CCN2C(=O)c3cc(F)c(-c4ccc(F)c5sc(N)c(C#N)c45)c4c(C)nn(c34)CC[C@H]2C1` (atropisomer, axis not shown) [Example 15-P1, (R)-2-Amino-7-fluoro-4-((S)-2-fluoro-10-(2-fluoroacryloyl)-4-methyl-14-oxo-8,8a,9,10,11,12-hexahydro-7H,14H-pyrazino[1′,2′:5,6][1,5]diazocino[3,2,1-hi]indazol-3-yl)benzo[b]thiophene-3-carbonitrile]: the values for the IC50 (in experiment [1]; with H358 cells; in the experiment with MIA PaCa-2 cells) were 19.7 nM, 41.6 nM and 56.8 nM, respectively.

`C=C(F)C(=O)N1CCN2C(=O)c3cc(F)c(-c4ccc(F)c5sc(N)c(C#N)c45)c4c(C)nn(c34)CC[C@H]2C1` (atropisomer, axis not shown) [Example 15-P2, (S)-2-Amino-7-fluoro-4-((S)-2-fluoro-10-(2-fluoroacryloyl)-4-methyl-14-oxo-8,8a,9,10,11,12-hexahydro-7H,14H-pyrazino[1′,2′:5,6][1,5]diazocino[3,2,1-hi]indazol-3-yl)benzo[b]thiophene-3-carbonitrile]: the values for the IC50 (in experiment [1]; in the experiment on H358 cells; with MIA PaCa-2 cells) were 3.94 nM, 4.21 nM and 7.75 nM, respectively.

For `C=C(F)C(=O)N1CCN2C(=O)c3cc(F)c(-c4ccc(F)c5sc(N)c(C#N)c45)c4c(F)nn(c34)CC[C@H]2C1` (atropisomer, axis not shown) [Example 16-P2, (S)-2-Amino-4-((S)-2,4-difluoro-10-(2-fluoroacryloyl)-14-oxo-8,8a,9,10,11,12-hexahydro-7H,14H-pyrazino[1′,2′:5,6][1,5]diazocino[3,2,1-hi]indazol-3-yl)-7-fluorobenzo[b]thiophene-3-carbonitrile], the IC50 in experiment [1] (Homo sapiens, NCI-H358, 3 h) was found to be 1.06 nM; in the experiment with H358 cells (Homo sapiens, NCI-H358, 120 h) it was 8 nM; in the experiment with MIA PaCa-2 cells (Homo sapiens, MIA PaCa-2, 72 h), 4.56 nM.

With `C=C(F)C(=O)N1CCN2C(=O)c3cc(F)c(-c4ccc(F)c5sc(N)c(C#N)c45)c4c(Cl)nn(c34)CC[C@H]2C1` (atropisomer, axis not shown) [Example 17-P2, (S)-2-Amino-4-((S)-4-chloro-2-fluoro-10-(2-fluoroacryloyl)-14-oxo-8,8a,9,10,11,12-hexahydro-7H,14H-pyrazino[1′,2′:5,6][1,5]diazocino[3,2,1-hi]indazol-3-yl)-7-fluorobenzo[b]thiophene-3-carbonitrile], the IC50 was 2 nM in experiment [1] (Homo sapiens, NCI-H358, 3 h); 1.87 nM in the experiment on H358 cells (Homo sapiens, NCI-H358, 120 h); 1.88 nM in the experiment with MIA PaCa-2 cells (Homo sapiens, MIA PaCa-2, 72 h).

`C=CC(=O)N1CCN2C(=O)c3cc(F)c(-c4ccc(F)c5sc(N)c(C#N)c45)c4c(C)cn(c34)CC[C@H]2C1` (atropisomer, axis not shown) [Example 18-P2, (S)-4-((S)-10-Acryloyl-2-fluoro-4-methyl-14-oxo-8,8a,9,10,11,12-hexahydro-7H,14H-pyrazino[1′,2′:5,6][1,5]diazocino[3,2,1-hi]indol-3-yl)-2-amino-7-fluorobenzo[b]thiophene-3-carbonitrile]: the IC50 in experiment [1] (Homo sapiens, NCI-H358, 3 h) came out at 1.09 nM; with H358 cells (Homo sapiens, NCI-H358, 120 h), 9.57 nM; with MIA PaCa-2 cells (Homo sapiens, MIA PaCa-2, 72 h), 9.16 nM.

Consider `C=CC(=O)N1CCN2C(=O)c3cc(F)c(-c4ccc(F)c5sc(N)c(C#N)c45)c4c(Cl)cn(c34)CC[C@H]2C1` (atropisomer, axis not shown) [Example 19-P2, (S)-4-((S)-10-Acryloyl-4-chloro-2-fluoro-14-oxo-8,8a,9,10,11,12-hexahydro-7H,14H-pyrazino[1′,2′:5,6][1,5]diazocino[3,2,1-hi]indol-3-yl)-2-amino-7-fluorobenzo[b]thiophene-3-carbonitrile], for which the IC50 was found to be 0.97 nM in experiment [1] (Homo sapiens, NCI-H358, 3 h); 5.65 nM with H358 cells (Homo sapiens, NCI-H358, 120 h); 4.9 nM with MIA PaCa-2 cells (Homo sapiens, MIA PaCa-2, 72 h).

For the origin of these results see US20250122211A1, “NITROGEN-CONTAINING TETRACYCLIC COMPOUND, PREPARATION METHOD THEREFOR, AND MEDICAL USE THEREOF” (Jiangsu Hengrui Pharmaceuticals Co., Ltd., priority 2021, published 2025).
